# Source: ChEMBL document CHEMBL3991601, “The target landscape of clinical kinase drugs” (Science, 2017)
# Calls of active or inactive are those of the source. Rule as the data show it, for most assays here: actives have a measured Kd and inactives only a lower limit.
# What was measured:
# [1] = target: Tyrosine-protein kinase ABL1 (Homo sapiens, UniProt P00519)
# Pyridoxal kinase = target: T1, Pyridoxal kinase (Homo sapiens, UniProt O00764)
# T1 sequence (O00764 whole entry): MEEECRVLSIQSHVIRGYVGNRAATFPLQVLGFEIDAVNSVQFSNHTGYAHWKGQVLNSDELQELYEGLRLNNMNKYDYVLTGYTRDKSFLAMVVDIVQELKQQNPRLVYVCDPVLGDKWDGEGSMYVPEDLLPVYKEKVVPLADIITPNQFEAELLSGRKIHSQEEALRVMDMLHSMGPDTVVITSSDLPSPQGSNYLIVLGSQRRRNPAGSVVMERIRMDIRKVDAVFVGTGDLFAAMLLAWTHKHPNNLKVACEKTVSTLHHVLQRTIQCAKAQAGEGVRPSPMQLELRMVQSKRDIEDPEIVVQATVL
# [2] = target: T2, Serine/threonine-protein kinase Chk1 (Homo sapiens, UniProt O14757)
# T2 sequence (O14757 whole entry): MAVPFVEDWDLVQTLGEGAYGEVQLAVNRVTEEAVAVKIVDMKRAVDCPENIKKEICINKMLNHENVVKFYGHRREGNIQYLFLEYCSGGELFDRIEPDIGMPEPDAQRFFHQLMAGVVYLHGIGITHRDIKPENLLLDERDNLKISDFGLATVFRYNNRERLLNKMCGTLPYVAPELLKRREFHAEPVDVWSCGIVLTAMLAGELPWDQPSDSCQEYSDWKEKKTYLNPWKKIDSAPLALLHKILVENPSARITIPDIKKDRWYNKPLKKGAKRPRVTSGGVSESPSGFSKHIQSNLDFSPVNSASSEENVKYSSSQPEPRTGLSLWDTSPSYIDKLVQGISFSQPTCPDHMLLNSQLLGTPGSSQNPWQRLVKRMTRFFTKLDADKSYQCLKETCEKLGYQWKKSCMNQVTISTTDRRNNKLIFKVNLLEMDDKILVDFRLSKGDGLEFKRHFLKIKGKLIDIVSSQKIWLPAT
# [3] = target: T3, Serine/threonine-protein kinase 4 (Homo sapiens, UniProt Q13043)
# T3 sequence (Q13043 whole entry): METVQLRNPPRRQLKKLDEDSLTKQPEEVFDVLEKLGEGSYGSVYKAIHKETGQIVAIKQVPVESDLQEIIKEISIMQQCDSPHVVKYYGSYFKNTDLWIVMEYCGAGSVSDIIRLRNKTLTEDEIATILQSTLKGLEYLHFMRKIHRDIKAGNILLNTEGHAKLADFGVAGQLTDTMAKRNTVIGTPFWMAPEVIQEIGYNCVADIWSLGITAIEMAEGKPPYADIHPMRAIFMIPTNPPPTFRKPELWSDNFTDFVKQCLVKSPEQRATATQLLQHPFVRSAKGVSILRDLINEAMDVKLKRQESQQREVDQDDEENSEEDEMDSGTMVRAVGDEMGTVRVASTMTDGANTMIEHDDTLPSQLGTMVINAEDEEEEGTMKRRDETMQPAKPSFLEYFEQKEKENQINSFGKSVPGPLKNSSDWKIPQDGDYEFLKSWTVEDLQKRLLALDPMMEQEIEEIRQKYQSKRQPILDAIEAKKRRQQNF
# [4] = target: T4, Serine/threonine-protein kinase D3 (Homo sapiens, UniProt O94806)
# T4 sequence (O94806 whole entry): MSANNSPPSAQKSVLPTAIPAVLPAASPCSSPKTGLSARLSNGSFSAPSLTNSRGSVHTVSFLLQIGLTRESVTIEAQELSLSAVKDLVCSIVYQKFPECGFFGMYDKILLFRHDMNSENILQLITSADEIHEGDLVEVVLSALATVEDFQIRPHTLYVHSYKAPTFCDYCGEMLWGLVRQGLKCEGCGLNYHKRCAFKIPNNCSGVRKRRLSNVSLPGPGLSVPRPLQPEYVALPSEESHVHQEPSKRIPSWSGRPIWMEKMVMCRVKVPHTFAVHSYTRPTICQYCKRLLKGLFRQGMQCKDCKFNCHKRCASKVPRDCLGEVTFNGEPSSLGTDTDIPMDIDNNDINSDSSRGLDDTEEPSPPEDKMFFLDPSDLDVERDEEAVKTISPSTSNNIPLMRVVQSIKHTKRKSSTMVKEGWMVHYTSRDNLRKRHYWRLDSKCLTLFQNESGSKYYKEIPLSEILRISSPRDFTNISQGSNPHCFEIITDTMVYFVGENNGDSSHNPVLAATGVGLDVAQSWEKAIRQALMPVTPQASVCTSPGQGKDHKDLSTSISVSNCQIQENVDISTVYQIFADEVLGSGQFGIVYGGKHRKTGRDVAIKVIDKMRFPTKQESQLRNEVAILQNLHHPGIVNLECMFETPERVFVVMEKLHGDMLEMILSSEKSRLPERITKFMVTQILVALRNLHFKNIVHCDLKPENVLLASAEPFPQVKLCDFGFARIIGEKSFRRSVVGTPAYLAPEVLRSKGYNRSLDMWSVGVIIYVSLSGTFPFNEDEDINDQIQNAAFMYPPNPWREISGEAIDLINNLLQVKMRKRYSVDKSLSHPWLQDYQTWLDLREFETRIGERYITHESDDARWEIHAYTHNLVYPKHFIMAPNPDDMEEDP
# Ephrin type-A receptor 4 = Ephrin type-A receptor 4 (Homo sapiens, UniProt P54764)
# Sequence of Ephrin type-A receptor 4 (P54764 whole entry): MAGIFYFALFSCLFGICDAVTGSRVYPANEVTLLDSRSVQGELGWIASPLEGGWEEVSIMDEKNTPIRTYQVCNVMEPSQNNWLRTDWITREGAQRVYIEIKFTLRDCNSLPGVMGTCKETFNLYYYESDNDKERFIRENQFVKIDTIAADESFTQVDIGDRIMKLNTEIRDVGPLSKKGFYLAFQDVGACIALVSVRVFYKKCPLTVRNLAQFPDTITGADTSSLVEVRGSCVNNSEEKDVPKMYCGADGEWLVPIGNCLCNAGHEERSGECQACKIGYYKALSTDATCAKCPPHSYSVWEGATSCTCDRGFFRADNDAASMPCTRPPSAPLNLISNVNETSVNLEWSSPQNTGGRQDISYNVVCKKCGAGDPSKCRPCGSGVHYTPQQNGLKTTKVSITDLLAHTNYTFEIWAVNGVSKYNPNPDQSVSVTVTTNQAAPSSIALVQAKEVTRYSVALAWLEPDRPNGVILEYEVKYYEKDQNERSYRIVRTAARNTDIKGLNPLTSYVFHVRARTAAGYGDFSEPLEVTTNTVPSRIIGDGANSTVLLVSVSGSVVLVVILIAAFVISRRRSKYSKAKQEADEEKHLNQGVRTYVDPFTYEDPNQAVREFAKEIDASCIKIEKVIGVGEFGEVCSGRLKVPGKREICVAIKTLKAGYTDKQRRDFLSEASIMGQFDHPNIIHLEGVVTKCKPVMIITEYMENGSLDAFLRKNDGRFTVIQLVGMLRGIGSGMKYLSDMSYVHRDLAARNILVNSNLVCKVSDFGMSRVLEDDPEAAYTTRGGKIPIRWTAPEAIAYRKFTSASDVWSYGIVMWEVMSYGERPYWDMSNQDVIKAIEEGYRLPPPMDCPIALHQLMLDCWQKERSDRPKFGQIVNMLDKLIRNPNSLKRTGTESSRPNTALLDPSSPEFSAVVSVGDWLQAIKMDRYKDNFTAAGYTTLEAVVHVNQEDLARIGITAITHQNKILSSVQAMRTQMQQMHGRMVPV
# [5] = target: Serine/threonine-protein kinase 26 (Homo sapiens, UniProt Q9P289)
# Sequence of Serine/threonine-protein kinase 26 (Q9P289 whole entry): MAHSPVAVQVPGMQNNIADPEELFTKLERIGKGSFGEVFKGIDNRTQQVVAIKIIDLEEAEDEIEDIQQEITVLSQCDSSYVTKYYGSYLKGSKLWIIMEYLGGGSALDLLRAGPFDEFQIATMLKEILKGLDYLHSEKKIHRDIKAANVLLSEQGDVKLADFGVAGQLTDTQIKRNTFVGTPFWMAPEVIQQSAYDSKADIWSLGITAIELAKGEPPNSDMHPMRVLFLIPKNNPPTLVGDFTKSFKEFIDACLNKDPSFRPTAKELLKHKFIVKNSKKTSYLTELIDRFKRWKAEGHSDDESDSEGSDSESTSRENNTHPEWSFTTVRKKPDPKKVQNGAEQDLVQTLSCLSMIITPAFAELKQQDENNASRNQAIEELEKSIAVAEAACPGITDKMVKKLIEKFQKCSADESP
# ADP/ATP translocase 3 = target: T5, ADP/ATP translocase 3 (Homo sapiens, UniProt P12236)
# T5 sequence (P12236 whole entry): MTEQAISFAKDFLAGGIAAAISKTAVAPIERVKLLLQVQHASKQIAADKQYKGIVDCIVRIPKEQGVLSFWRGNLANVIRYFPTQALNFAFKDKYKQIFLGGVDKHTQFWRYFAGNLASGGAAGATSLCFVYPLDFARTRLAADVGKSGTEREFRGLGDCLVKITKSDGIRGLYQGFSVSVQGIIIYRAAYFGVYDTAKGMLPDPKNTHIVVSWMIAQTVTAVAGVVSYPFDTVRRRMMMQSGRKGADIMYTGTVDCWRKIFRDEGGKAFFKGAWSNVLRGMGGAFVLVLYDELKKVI
# [6] = target: Protein kinase C delta type (Homo sapiens, UniProt Q05655)
# Sequence of Protein kinase C delta type (Q05655 whole entry): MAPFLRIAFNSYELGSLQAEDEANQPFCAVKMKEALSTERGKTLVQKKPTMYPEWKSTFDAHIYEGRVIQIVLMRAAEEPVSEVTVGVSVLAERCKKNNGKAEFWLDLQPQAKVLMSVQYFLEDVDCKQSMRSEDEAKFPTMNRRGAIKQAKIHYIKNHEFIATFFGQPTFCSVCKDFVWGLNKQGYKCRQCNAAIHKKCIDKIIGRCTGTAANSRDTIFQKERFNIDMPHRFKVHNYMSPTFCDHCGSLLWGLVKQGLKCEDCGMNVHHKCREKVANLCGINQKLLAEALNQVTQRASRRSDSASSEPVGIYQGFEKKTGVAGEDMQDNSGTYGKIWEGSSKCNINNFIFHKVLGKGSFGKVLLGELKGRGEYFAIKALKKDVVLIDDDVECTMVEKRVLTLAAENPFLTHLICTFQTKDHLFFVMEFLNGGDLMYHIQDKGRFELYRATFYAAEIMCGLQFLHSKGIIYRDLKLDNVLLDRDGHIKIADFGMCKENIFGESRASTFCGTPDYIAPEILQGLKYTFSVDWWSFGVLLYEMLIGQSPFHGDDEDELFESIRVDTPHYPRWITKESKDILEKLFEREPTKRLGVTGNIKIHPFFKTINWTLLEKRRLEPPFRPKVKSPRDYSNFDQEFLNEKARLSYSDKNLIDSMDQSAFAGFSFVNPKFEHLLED
# [7] = target: RAC-gamma serine/threonine-protein kinase (Homo sapiens, UniProt Q9Y243)
# Sequence of RAC-gamma serine/threonine-protein kinase (Q9Y243 whole entry): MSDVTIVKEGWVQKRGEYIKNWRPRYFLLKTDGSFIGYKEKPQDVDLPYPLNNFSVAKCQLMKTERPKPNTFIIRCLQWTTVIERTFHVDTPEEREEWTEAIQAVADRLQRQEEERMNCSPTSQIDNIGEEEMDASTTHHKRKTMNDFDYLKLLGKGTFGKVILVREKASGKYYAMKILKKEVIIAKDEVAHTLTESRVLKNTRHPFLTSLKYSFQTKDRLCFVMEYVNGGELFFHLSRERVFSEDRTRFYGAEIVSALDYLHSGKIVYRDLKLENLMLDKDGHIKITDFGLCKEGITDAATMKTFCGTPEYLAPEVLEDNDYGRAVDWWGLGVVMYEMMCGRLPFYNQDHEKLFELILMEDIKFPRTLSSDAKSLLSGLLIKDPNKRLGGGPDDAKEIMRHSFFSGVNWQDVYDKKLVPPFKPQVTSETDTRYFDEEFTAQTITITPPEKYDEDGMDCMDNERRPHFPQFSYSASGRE
# [8] = target: Protein kinase C theta type (Homo sapiens, UniProt Q04759)
# Sequence of Protein kinase C theta type (Q04759 whole entry): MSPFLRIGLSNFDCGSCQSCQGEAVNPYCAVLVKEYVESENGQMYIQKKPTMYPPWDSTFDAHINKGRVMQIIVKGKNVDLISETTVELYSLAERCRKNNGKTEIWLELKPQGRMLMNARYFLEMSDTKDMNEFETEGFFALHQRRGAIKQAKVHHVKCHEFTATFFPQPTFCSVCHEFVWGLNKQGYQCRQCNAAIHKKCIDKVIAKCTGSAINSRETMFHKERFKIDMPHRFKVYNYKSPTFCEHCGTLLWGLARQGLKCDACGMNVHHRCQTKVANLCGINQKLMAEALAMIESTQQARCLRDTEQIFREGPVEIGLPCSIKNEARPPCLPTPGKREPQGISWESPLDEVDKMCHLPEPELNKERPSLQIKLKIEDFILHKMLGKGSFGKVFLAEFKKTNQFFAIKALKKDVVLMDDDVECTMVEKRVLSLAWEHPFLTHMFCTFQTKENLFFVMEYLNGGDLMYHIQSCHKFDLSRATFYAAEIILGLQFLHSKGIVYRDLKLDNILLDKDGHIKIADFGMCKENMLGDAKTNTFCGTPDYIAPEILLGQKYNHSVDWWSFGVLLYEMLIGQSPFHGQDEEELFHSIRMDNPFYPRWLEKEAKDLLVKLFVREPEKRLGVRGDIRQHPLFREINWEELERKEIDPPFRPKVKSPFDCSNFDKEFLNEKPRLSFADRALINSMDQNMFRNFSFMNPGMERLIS
# Also: in the data inactive means no Kd found up to 30 µM.
# Sequence of Tyrosine-protein kinase ABL1 (P00519 whole entry): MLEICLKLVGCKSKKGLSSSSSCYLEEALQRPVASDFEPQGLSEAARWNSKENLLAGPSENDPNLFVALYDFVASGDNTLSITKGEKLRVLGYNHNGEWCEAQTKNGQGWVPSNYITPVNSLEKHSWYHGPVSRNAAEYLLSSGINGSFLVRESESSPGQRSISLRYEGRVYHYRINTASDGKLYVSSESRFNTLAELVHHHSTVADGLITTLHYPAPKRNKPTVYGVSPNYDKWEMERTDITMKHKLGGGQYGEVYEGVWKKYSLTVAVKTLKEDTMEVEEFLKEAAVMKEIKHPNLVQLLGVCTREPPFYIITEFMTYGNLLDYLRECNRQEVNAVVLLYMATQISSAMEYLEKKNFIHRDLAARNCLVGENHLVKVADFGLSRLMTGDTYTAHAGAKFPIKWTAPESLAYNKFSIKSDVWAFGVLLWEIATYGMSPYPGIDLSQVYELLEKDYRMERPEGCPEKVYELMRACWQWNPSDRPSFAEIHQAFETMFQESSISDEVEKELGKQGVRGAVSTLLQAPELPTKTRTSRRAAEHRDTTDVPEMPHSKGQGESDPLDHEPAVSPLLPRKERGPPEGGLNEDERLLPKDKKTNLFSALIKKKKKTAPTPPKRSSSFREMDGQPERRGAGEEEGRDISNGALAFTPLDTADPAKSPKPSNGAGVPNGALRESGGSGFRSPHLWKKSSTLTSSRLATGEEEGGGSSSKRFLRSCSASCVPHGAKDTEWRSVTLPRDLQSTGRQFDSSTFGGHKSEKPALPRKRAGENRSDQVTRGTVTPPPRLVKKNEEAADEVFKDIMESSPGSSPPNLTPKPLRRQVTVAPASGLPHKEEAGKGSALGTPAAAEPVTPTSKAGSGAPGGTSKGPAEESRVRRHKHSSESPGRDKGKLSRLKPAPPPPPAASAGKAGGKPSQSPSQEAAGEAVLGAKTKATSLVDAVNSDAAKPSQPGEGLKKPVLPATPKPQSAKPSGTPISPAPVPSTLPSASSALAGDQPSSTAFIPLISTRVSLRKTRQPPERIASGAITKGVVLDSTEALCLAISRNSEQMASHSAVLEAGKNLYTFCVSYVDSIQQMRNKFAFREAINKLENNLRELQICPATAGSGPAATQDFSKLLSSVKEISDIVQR
Structure (SMILES),Kd [1],Kd (Pyridoxal kinase),Kd [2],Kd [3],Kd [4],Kd (Ephrin type-A receptor 4),Kd [5],Kd (ADP/ATP translocase 3),Kd [6],Kd [7],Kd [8]
C[C@@H](Oc1cc(C(=O)Nc2ccc(C(=O)N3CCN(C)CC3)cc2)nnc1N)c1c(Cl)ccc(F)c1Cl,> 30 µM (inactive),> 30 µM (inactive),> 30 µM (inactive),> 30 µM (inactive),> 30 µM (inactive),> 30 µM (inactive),> 30 µM (inactive),> 30 µM (inactive),> 30 µM (inactive),–,–
C[C@H]1CNCCCN1S(=O)(=O)c1cccc2cncc(F)c12,> 30 µM (inactive),> 30 µM (inactive),> 30 µM (inactive),> 30 µM (inactive),> 30 µM (inactive),> 30 µM (inactive),> 30 µM (inactive),> 30 µM (inactive),2.47 µM (active),–,–
CC(=O)c1cnc2ccc(-c3cc(Cl)c(O)c(Cl)c3)nc2c1N[C@H]1CC[C@H](CN(C)C)CC1,0.28 µM (active),> 30 µM (inactive),> 30 µM (inactive),0.067 µM (active),0.093 µM (active),–,> 30 µM (inactive),> 30 µM (inactive),–,> 30 µM (inactive),–
CCNC(=O)C#Cc1ccc2c(c1)NC(=O)/C2=C(\Nc1ccc(CN(C)C)cc1)c1ccccc1,1.59 µM (active),> 30 µM (inactive),> 30 µM (inactive),1.26 µM (active),> 30 µM (inactive),> 30 µM (inactive),> 30 µM (inactive),> 30 µM (inactive),> 30 µM (inactive),–,–
COCc1c(-c2ccc(NC(=O)Nc3cc(C(F)(F)F)ccc3F)c(F)c2)c2c(N)ncnn2c1CN1CCOCC1,> 30 µM (inactive),> 30 µM (inactive),> 30 µM (inactive),> 30 µM (inactive),> 30 µM (inactive),> 30 µM (inactive),> 30 µM (inactive),> 30 µM (inactive),5.08 µM (active),> 30 µM (inactive),–
NC(=O)Nc1cc(-c2cccc(F)c2)sc1C(=O)N[C@H]1CCCNC1 [AZD-7762],0.61 µM (active),> 30 µM (inactive),–,0.056 µM (active),2.14 µM (active),> 30 µM (inactive),> 30 µM (inactive),> 30 µM (inactive),0.928 µM,> 30 µM (inactive),> 30 µM (inactive)
O=C(Nc1cc(C(F)(F)F)cc(C(F)(F)F)c1)c1cc(Cl)ccc1O [IMD-0354],> 30 µM (inactive),> 30 µM (inactive),–,> 30 µM (inactive),> 30 µM (inactive),> 30 µM (inactive),> 30 µM (inactive),> 30 µM (inactive),–,–,> 30 µM (inactive)
